Measurements published in ChEMBL document CHEMBL4507268 (2021).

Key:
[1] = target: Cyclin-dependent kinase 9 (Homo sapiens) (UniProt P50750); conditions: Compound concentration 1000.0 nM
[2] = target: Casein kinase I isoform gamma-3 (Homo sapiens) (UniProt Q9Y6M4); conditions: Compound concentration 1000.0 nM
[3] = target: Ephrin type-A receptor 6 (Homo sapiens) (UniProt Q9UF33); conditions: Compound concentration 1000.0 nM
[4] = target: Ephrin type-A receptor 7 (Homo sapiens) (UniProt Q15375); conditions: Compound concentration 1000.0 nM
[5] = target: T1, Ephrin type-B receptor 4 (Homo sapiens) (UniProt P54760); conditions: Compound concentration 1000.0 nM
T1 sequence (whole entry): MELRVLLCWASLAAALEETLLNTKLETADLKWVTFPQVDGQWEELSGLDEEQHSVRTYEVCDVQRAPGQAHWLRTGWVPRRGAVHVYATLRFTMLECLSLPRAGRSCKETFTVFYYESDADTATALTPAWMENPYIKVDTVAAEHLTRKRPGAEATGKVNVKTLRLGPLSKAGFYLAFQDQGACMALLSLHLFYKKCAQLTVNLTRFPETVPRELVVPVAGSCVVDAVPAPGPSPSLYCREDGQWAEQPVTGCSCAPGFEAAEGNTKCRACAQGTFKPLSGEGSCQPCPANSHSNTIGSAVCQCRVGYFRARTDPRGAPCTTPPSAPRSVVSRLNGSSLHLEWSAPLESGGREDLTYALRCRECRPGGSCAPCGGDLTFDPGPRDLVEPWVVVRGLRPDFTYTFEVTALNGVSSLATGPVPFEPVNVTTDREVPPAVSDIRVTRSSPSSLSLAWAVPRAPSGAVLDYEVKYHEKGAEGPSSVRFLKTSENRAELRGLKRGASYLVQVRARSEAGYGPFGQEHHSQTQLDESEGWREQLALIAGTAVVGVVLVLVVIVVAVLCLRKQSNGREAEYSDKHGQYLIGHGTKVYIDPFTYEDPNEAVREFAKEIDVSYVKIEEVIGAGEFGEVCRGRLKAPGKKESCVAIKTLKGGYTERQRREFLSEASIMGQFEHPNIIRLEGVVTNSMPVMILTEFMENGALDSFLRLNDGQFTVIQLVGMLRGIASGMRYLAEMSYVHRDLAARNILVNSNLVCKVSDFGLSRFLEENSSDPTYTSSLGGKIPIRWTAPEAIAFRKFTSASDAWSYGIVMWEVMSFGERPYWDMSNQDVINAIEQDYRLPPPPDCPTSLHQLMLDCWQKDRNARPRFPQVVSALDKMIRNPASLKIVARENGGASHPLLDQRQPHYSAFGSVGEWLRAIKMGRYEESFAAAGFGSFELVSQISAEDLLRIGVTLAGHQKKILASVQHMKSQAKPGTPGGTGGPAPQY

[6] = target: Serine/threonine-protein kinase LATS1 (Homo sapiens) (UniProt O95835); conditions: Compound concentration 1000.0 nM
[7] = target: Mitogen-activated protein kinase kinase kinase 11 (Homo sapiens) (UniProt Q16584); conditions: Compound concentration 1000.0 nM
[8] = target: Platelet-derived growth factor receptor beta (Homo sapiens) (UniProt P09619); conditions: Compound concentration 1000.0 nM
[9] = test system: Phosphatidylinositol 4,5-bisphosphate 3-kinase catalytic subunit alpha isoform (Homo sapiens), P42336 [M1043I]; conditions: Compound concentration 1000.0 nM
[10] = test system: Proto-oncogene tyrosine-protein kinase receptor Ret (Homo sapiens), P07949 [V804L]; conditions: Compound concentration 1000.0 nM
[11] = target: T2, Serine/threonine-protein kinase Sgk2 (Homo sapiens) (UniProt Q9HBY8); conditions: Compound concentration 1000.0 nM
T2 sequence (whole entry): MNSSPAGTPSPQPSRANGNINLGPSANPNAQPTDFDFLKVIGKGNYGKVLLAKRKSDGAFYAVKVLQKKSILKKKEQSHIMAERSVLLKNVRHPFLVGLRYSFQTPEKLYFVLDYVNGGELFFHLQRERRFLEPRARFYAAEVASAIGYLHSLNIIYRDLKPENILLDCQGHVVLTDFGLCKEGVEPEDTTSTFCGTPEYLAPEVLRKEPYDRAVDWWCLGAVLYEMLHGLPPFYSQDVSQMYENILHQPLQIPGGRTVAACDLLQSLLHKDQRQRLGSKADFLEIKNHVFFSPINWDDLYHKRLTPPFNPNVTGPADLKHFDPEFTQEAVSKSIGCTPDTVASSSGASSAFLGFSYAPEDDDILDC

[12] = target: T3, Serine/threonine-protein kinase TAO3 (Homo sapiens) (UniProt Q9H2K8); conditions: Compound concentration 1000.0 nM
T3 sequence (whole entry): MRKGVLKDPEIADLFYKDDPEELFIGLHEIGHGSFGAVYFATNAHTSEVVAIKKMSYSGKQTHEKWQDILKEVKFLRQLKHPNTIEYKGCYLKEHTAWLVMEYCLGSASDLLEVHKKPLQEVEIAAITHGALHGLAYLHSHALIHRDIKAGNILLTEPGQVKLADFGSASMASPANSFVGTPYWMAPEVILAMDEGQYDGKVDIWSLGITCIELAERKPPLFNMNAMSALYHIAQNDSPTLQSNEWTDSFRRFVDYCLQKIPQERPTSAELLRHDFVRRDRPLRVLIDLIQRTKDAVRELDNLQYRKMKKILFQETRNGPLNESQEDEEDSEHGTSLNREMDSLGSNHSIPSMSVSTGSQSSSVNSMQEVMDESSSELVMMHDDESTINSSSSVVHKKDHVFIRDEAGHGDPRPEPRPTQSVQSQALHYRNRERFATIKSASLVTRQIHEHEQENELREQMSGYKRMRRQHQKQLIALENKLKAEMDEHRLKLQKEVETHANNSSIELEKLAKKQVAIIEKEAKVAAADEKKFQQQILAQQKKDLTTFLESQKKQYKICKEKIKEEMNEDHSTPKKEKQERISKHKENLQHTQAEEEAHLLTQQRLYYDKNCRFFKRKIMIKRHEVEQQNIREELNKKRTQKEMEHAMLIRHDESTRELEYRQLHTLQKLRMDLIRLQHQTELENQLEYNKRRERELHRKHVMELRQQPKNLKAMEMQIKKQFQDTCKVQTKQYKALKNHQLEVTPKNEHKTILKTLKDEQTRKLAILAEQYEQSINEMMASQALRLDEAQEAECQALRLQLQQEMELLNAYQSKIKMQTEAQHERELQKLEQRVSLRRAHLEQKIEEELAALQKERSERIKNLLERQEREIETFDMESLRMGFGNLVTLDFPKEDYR

[13] = target: Tyrosine-protein kinase receptor Tie-1 (Homo sapiens) (UniProt P35590); conditions: Compound concentration 1000.0 nM
[14] = target: Activated CDC42 kinase 1 (Homo sapiens) (UniProt Q07912); conditions: Compound concentration 1000.0 nM
[15] = target: Delta-type opioid receptor (Homo sapiens) (UniProt P41143); conditions: Compound concentration 10.0 uM
Sequence of Delta-type opioid receptor (Homo sapiens) (P41143 whole entry): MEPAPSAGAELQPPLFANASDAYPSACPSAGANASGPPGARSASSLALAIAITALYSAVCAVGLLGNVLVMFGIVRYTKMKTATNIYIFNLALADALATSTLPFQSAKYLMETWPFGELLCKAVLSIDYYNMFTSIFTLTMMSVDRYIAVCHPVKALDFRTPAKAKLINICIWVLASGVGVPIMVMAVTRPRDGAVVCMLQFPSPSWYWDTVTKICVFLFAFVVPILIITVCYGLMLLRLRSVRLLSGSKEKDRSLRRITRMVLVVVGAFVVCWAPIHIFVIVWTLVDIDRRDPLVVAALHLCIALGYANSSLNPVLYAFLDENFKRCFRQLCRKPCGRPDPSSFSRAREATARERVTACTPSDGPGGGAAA

Sequence of Cyclin-dependent kinase 9 (Homo sapiens) (P50750 whole entry, canonical isoform): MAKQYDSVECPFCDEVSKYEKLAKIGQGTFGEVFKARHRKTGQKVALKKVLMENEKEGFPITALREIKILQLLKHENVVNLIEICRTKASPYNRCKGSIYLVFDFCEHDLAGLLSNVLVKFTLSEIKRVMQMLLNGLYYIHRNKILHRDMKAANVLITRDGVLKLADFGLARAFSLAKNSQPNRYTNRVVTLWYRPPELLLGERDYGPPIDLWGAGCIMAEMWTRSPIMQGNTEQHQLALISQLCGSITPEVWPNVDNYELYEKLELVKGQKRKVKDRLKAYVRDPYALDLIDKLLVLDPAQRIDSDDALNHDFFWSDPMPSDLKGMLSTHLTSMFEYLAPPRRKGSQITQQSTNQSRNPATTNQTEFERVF
Sequence of Proto-oncogene tyrosine-protein kinase receptor Ret (Homo sapiens), P07949 [V804L] (P07949 whole entry V804L): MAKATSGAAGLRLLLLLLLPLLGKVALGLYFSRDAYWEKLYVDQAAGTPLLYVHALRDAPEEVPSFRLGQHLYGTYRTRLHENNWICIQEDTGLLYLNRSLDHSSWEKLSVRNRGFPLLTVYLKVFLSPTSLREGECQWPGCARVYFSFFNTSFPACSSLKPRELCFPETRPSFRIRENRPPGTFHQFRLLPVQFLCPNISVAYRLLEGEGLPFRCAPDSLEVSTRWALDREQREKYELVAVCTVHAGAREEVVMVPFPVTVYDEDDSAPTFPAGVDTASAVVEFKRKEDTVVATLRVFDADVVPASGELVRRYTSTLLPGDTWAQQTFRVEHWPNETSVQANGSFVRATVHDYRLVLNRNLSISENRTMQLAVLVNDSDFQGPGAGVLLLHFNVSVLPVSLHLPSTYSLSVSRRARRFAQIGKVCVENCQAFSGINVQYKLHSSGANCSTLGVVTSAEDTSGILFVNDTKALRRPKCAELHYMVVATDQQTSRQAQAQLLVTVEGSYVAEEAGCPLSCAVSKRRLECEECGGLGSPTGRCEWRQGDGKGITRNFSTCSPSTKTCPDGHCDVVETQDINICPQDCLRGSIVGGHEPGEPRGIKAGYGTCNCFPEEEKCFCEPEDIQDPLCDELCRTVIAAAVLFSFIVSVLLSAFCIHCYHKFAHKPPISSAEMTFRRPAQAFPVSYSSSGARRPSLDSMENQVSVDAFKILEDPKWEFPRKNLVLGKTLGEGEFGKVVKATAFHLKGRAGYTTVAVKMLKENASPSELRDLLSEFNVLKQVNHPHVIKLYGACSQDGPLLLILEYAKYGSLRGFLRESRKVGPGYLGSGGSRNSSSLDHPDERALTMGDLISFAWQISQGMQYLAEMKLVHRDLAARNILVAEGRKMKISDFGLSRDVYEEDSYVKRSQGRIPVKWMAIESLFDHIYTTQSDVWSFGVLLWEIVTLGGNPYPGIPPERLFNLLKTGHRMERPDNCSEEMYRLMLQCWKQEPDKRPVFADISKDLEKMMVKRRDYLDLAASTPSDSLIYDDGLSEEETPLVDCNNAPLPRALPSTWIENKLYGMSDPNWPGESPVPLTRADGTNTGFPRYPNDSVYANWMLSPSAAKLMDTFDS
Sequence of Casein kinase I isoform gamma-3 (Homo sapiens) (Q9Y6M4 whole entry, looked up, canonical isoform): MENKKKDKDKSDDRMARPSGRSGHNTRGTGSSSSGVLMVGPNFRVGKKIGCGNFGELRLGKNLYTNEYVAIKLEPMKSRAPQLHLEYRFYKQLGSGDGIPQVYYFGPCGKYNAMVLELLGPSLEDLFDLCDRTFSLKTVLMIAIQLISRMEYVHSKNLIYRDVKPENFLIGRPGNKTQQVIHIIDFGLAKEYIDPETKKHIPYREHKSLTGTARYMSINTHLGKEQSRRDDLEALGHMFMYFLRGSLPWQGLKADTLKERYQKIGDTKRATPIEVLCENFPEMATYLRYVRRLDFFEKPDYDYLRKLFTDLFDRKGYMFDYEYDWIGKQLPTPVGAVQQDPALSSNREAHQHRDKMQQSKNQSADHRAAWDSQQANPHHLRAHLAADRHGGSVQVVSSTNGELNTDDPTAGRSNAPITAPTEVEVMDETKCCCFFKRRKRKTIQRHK
Sequence of Ephrin type-A receptor 6 (Homo sapiens) (Q9UF33 whole entry): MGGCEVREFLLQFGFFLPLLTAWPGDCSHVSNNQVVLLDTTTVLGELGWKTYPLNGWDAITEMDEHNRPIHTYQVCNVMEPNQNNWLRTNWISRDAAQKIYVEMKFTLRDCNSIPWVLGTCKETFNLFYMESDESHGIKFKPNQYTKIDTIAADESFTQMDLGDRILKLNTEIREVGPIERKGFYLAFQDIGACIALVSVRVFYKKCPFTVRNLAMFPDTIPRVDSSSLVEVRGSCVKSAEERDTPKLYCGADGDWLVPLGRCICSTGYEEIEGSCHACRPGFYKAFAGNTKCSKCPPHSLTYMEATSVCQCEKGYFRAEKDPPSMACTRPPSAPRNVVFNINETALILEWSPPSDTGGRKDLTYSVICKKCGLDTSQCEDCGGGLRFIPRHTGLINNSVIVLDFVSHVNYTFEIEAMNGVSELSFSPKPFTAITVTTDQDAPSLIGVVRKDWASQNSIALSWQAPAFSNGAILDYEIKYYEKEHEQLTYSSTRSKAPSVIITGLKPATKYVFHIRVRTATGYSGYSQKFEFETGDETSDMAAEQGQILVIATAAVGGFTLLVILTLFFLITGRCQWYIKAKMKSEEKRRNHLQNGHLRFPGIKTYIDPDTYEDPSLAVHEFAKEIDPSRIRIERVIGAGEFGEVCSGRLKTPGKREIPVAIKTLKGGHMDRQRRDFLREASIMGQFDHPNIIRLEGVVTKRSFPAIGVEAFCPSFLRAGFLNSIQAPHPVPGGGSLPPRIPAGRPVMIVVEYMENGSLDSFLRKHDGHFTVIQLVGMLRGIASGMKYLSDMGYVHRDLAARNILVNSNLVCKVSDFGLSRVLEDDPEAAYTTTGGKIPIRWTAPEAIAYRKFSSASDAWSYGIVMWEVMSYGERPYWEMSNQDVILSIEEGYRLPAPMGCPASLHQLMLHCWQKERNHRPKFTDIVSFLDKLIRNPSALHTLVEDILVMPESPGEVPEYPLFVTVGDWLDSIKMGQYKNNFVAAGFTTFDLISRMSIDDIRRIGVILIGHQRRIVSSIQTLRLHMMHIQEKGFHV
Sequence of Mitogen-activated protein kinase kinase kinase 11 (Homo sapiens) (Q16584 whole entry, looked up): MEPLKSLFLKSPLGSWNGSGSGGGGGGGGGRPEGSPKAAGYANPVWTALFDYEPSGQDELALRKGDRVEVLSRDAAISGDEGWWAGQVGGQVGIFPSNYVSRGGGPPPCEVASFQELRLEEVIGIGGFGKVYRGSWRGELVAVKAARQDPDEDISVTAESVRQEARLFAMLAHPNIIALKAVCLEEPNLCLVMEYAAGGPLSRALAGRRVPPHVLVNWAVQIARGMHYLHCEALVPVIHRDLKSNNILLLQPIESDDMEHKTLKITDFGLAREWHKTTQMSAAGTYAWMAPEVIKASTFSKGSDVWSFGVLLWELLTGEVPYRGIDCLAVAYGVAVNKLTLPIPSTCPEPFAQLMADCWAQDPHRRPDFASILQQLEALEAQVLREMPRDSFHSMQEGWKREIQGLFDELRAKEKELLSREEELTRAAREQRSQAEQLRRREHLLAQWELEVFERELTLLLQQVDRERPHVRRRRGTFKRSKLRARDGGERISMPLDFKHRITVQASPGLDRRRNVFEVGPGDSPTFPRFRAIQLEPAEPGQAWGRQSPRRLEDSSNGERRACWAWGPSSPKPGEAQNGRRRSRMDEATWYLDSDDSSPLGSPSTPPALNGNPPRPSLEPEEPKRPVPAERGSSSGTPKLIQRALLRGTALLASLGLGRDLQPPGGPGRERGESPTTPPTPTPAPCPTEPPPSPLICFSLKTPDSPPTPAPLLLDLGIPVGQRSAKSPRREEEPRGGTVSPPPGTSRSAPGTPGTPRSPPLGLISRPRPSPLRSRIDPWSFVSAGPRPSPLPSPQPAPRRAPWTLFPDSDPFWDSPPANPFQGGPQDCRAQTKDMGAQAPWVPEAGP

Cc1nc(C2CCN(C(=O)c3ccc(OC(F)(F)F)cc3N)CC2)c2ncc(N3CCN(C)CC3)cc2n1 [BAY-693]
inactive: residual activity [1] 79% | residual activity [2] 100% | residual activity [3] 95% | residual activity [4] 92% | residual activity [5] 92% | residual activity [6] 78% | residual activity [7] 100% | residual activity [8] 95% | residual activity [9] 96% | residual activity [10] 73% | residual activity [11] 94% | residual activity [12] 100% | residual activity [13] 100% | residual activity [14] 100% | inhibition [15] 4.34%

CN1CCN(c2cnc3c(C4CCN(C(=O)c5ccc(OC(F)(F)F)cc5N)CC4)ncnc3c2)CC1 [BAY-885]
inactive: residual activity [1] 100% | residual activity [2] 100% | residual activity [3] 100% | residual activity [4] 100% | residual activity [5] 100% | residual activity [6] 81% | residual activity [7] 100% | residual activity [8] 95% | residual activity [9] 100% | residual activity [10] 97% | residual activity [11] 92% | residual activity [12] 100% | residual activity [13] 80% | residual activity [14] 100% | inhibition [15] 0.94%
